pIC50: −log10 of the molar value.
Key:
[1] = tested on: Ba/F3-CDM cells (Ba/F3 transfected with CD8-MerTK); experiment: In cell MER kinase assay, Ba/F3-CDM cell proliferation without IL-3 (Celltiter-Glo, GI50); type: cell-based, murine; settings: 48 hours, read-out: Cell growth inhibition (GI50)
Summary of the method: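 Ba/F3 cells expressing CD8-MerTK were grown without IL-3, so that proliferation depends on MerTK. Cells were pre-incubated 24 h, then exposed to compound for 48 h. Viability was read by CellTiter-Glo, with IL-3-supplemented Ba/F3 run in parallel as a nonspecific cytotoxicity control, and GI50 was derived.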

[2] = target: human c-MER catalytic domain (Homo sapiens (Human), UniProt Q12866); experiment: LanthaScreen TR-FRET biochemical kinase assay (c-MER); settings: read-out: Mer TK inhibition (IC50), 10 uM ATP
Chain of human c-MER catalytic domain (Q12866 587-858): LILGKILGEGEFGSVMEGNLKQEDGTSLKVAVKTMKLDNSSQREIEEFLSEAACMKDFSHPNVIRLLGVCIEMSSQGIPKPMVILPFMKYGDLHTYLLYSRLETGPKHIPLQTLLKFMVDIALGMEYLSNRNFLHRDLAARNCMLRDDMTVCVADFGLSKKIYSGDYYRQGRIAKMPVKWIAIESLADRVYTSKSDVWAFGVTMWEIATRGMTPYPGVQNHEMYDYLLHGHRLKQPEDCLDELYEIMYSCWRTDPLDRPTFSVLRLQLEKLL

| SMILES | GI50 [1] [nM] | pIC50 [2] |
| --- | --- | --- |
| C[C@@H]1CN(C)[C@@H](C)CN1Cc1ccc(-c2ccc(CO[C@H]3CCC[C@@H]3NC(=O)c3cc(-c4cnn(C)c4)cnc3N)cc2)cc1 [Example 192, 2-amino-5-(1-methyl-1H-pyrazol-4-yl)-N-((1S,2S)-2-((4′-(((2R,5S)-2,4,5-trimethylpiperazin-1-yl)methyl)-[1,1′-biphenyl]-4-yl)methoxy)cyclopentyl)nicotinamide] | < 100 | > 8.00 |
| C[C@@H]1CN(Cc2ccc(-c3ccc(CO[C@H]4CCC[C@@H]4NC(=O)c4cc(-c5cnn(C)c5)cnc4N)cc3)cc2)C[C@H](C)N1C [Example 190, 2-amino-5-(1-methyl-1H-pyrazol-4-yl)-N-((1S,2S)-2-((4′-((cis-3,4,5-trimethylpiperazin-1-yl)methyl)-[1,1′-biphenyl]-4-yl)methoxy)cyclopentyl)-nicotinamide] | < 100 | > 8.00 |
| CCc1cc(CO[C@H]2CNC[C@@H]2NC(=O)c2cc(-c3ccc(CO)cc3)cnc2N)ccc1C [Example 389, 2-amino-N-((3S,4S)-4-((3-ethyl-4-methylbenzyl)oxy)pyrrolidin-3-yl)-5-(4-(hydroxymethyl)phenyl)nicotinamide] | 100 to 500 | > 8.00 |
